PubChem BioAssay AID330 (DTP/NCI, 2004)
“And” between values parts separate entries of the source, which are not always exact repeats. Identical values can stand only once. Inconclusive results and toxic doses are left out. How the source made its calls: active means survival T/C of 150% or more; inactive means T/C below 125% in these data.

System: P388 leukemia ip, CD2F1 mice, survival T/C
Test: NCI In Vivo Anticancer Drug Screen. Data for tumor model P388 Leukemia (intraperitoneal) in CD2F1 (CDF1) mice
Settings: endpoint: median survival time, higher = longer survival
In short: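 Mice carrying the transplanted tumor received test compound or vehicle. Survival was recorded in each group, and the value is the treated-group measurement divided by that of the vehicle-treated control group.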

[1] = dose: 50.0 mg/kg/injection, schedule: Q01DX005 (ip), vehicle: Klucel (hydroxypropylcellulose) (HPC)
[2] = dose: 100.0 mg/kg/injection, schedule: Q01DX005 (ip), vehicle: Klucel (hydroxypropylcellulose) (HPC)
[3] = dose: 200.0 mg/kg/injection, schedule: Q01DX005 (ip), vehicle: Klucel (hydroxypropylcellulose) (HPC)
[4] = dose: 50.0 mg/kg/injection, schedule: Q01DX009 (ip), vehicle: saline
[5] = dose: 100.0 mg/kg/injection, schedule: Q04DX002 (ip), vehicle: saline
[6] = dose: 200.0 mg/kg/injection, schedule: Q04DX002 (ip), vehicle: saline
[7] = dose: 400.0 mg/kg/injection, schedule: Q04DX002 (ip), vehicle: saline
[8] = dose: 50.0 mg/kg/injection, schedule: Q01DX009 (ip), vehicle: saline with Tween-80

Measured: T/C

O=C(N=C=S)c1ccccc1
inactive: dose: 100.0 mg/kg/injection, schedule: Q04DX003 (ip), vehicle: other 90 % of control | dose: 200.0 mg/kg/injection, schedule: Q04DX003 (ip), vehicle: other 100 % of control | dose: 400.0 mg/kg/injection, schedule: Q04DX003 (ip), vehicle: other 109 % of control

[O]=[Mo](=[O])=[O]
inactive: dose: 60.0 mg/kg/injection, schedule: Q01DX005 (ip), vehicle: saline 100 % of control | dose: 120.0 mg/kg/injection, schedule: Q01DX005 (ip), vehicle: saline 110 % of control | dose: 240.0 mg/kg/injection, schedule: Q01DX005 (ip), vehicle: saline 115 % of control

Cc1c(N)nc(C(CC(N)=O)NCC(N)C(N)=O)nc1C(=O)NC(C(=O)NC(C)C(O)CC(=O)NC(C(=O)NC(OC1OC(C)C(N)C(O)C1O)C(O)c1nc(-c2nc(C(=O)NCCCC(N)CC(=O)NCCCNCCCCN)cs2)cs1)C(C)O)C(OC1OC(CO)C(O)C(O)C1OC1OC(CO)C(O)C(OC(N)=O)C1O)c1cnc[nH]1 (configuration not stated)
inactive: dose: 0.5 mg/kg/injection, schedule: Q01DX009 (ip), vehicle: water 106 % of control | dose: 0.8 mg/kg/injection, schedule: Q01DX009 (ip), vehicle: water 113 % of control and 119 % of control | dose: 1.0 mg/kg/injection, schedule: Q01DX009 (ip), vehicle: water 113 % of control | dose: 1.3 mg/kg/injection, schedule: Q01DX009 (ip), vehicle: water 113 % of control and 97 % of control | dose: 2.0 mg/kg/injection, schedule: Q01DX009 (ip), vehicle: water 113 % of control | dose: 2.2 mg/kg/injection, schedule: Q01DX009 (ip), vehicle: water 111 % of control and 87 % of control | dose: 3.6 mg/kg/injection, schedule: Q01DX009 (ip), vehicle: water 92 % of control

CC(=O)N1C=CC(C2C=CN(C(C)=O)C=C2)C=C1
inactive: dose: 10.0 mg/kg/injection, schedule: Q01DX009 (ip), vehicle: saline with Tween-80 109 % of control | dose: 20.0 mg/kg/injection, schedule: Q01DX009 (ip), vehicle: saline with Tween-80 96 % of control | dose: 40.0 mg/kg/injection, schedule: Q01DX009 (ip), vehicle: saline with Tween-80 100 % of control

Cc1ccc(NC(=O)N2CC(C)OC(C)C2)cc1[N+](=O)[O-] (configuration not stated)
inactive: [1] 103 % of control | [2] 99 % of control | [3] 94 % of control

COc1ccc(C(O)C/[N+]([O-])=C/c2ncc([N+](=O)[O-])n2C)cc1 (configuration not stated)
inactive: [4] 97 % of control | dose: 100.0 mg/kg/injection, schedule: Q01DX009 (ip), vehicle: saline 100 % of control | dose: 200.0 mg/kg/injection, schedule: Q01DX009 (ip), vehicle: saline 106 % of control

CC(C)c1nc2c(c(=O)o1)CCS2
inactive: [1] 100 % of control | [2] 98 % of control | [3] 98 % of control

CC(C)=CC(=O)NCCO
inactive: [5] 100 % of control | [6] 100 % of control | [7] 105 % of control

CCC[As](CCC)SC1CCC2(C)C(=CCC3C4CCC(=O)C4(C)CCC32)C1 (configuration not stated)
inactive: dose: 12.5 mg/kg/injection, schedule: Q01DX009 (ip), vehicle: distilled water + Tween-80 98 % of control | dose: 25.0 mg/kg/injection, schedule: Q01DX009 (ip), vehicle: distilled water + Tween-80 98 % of control | dose: 50.0 mg/kg/injection, schedule: Q01DX009 (ip), vehicle: distilled water + Tween-80 95 % of control | dose: 100.0 mg/kg/injection, schedule: Q01DX009 (ip), vehicle: distilled water + Tween-80 92 % of control | dose: 200.0 mg/kg/injection, schedule: Q01DX009 (ip), vehicle: distilled water + Tween-80 98 % of control

Nc1c(Cl)ccc2cccnc12
inactive: dose: 50.0 mg/kg/injection, schedule: Q01DX005 (ip), vehicle: saline + Tween-80 + alcohol 107 % of control | dose: 100.0 mg/kg/injection, schedule: Q01DX005 (ip), vehicle: saline + Tween-80 + alcohol 107 % of control | dose: 200.0 mg/kg/injection, schedule: Q01DX005 (ip), vehicle: saline + Tween-80 + alcohol 110 % of control

O=C(OC1C2C=CC1C1C3CCC(c4ccccc43)C21)c1ccc([N+](=O)[O-])cc1[N+](=O)[O-] (configuration not stated)
inactive: [5] 103 % of control | [6] 99 % of control | [7] 100 % of control

Cc1ccc(S(=O)(=O)OC2CCN(C(=O)OCc3ccccc3)CC2)cc1
inactive: [8] 95 % of control | dose: 100.0 mg/kg/injection, schedule: Q01DX009 (ip), vehicle: saline with Tween-80 98 % of control | dose: 200.0 mg/kg/injection, schedule: Q01DX009 (ip), vehicle: saline with Tween-80 98 % of control

COc1cc2c(c(OC)c1OC)CCC1C(=O)NN=C21 (configuration not stated)
inactive: dose: 12.5 mg/kg/injection, schedule: Q04DX003 (ip), vehicle: Klucel (hydroxypropylcellulose) (HPC) 111 % of control | dose: 25.0 mg/kg/injection, schedule: Q04DX003 (ip), vehicle: Klucel (hydroxypropylcellulose) (HPC) 104 % of control | dose: 50.0 mg/kg/injection, schedule: Q04DX003 (ip), vehicle: Klucel (hydroxypropylcellulose) (HPC) 111 % of control

O=c1cc2[nH]c3ccccc3c(=O)n2[nH]1
inactive: [1] 98 % of control | [2] 97 % of control | [3] 95 % of control

O=C1CSC(=O)N1c1cccc(Cl)c1
inactive: dose: 1.56 mg/kg/injection, schedule: Q01DX009 (ip), vehicle: saline 99 % of control and 97 % of control | dose: 3.12 mg/kg/injection, schedule: Q01DX009 (ip), vehicle: saline 100 % of control and 103 % of control | dose: 6.25 mg/kg/injection, schedule: Q01DX009 (ip), vehicle: saline 90 % of control and 96 % of control | [8] 106 % of control | [4] 89 % of control

COc1ccc(C2c3cc4c(cc3OC(O)C2C)OCO4)c(OC)c1 (configuration not stated)
inactive: dose: 100.0 mg/kg/injection, schedule: Q04DX002 (ip), vehicle: saline with Tween-80 97 % of control | dose: 200.0 mg/kg/injection, schedule: Q04DX002 (ip), vehicle: saline with Tween-80 97 % of control | dose: 400.0 mg/kg/injection, schedule: Q04DX002 (ip), vehicle: saline with Tween-80 95 % of control

O=C(/C=C/c1ccc(Cl)cc1)NC1C=Nc2ccc([N+](=O)[O-])cc2NC1=O (configuration not stated)
inactive: dose: 60.0 mg/kg/injection, schedule: Q01DX005 (ip), vehicle: saline with Tween-80 105 % of control | dose: 120.0 mg/kg/injection, schedule: Q01DX005 (ip), vehicle: saline with Tween-80 100 % of control | dose: 240.0 mg/kg/injection, schedule: Q01DX005 (ip), vehicle: saline with Tween-80 98 % of control

O=C1c2ccccc2C(=O)c2c(NCCN3CCCCC3)ccc(NCCN3CCCCC3)c21
inactive: dose: 4.0 mg/kg/injection, schedule: Q01DX009 (ip), vehicle: acid diluted with saline 102 % of control | dose: 8.0 mg/kg/injection, schedule: Q01DX009 (ip), vehicle: acid diluted with saline 100 % of control | dose: 12.5 mg/kg/injection, schedule: Q01DX009 (ip), vehicle: other 98 % of control | dose: 16.0 mg/kg/injection, schedule: Q01DX009 (ip), vehicle: acid diluted with saline 103 % of control | dose: 25.0 mg/kg/injection, schedule: Q01DX009 (ip), vehicle: other 104 % of control | dose: 32.0 mg/kg/injection, schedule: Q01DX009 (ip), vehicle: acid diluted with saline 101 % of control | dose: 50.0 mg/kg/injection, schedule: Q01DX009 (ip), vehicle: other 104 % of control | dose: 64.0 mg/kg/injection, schedule: Q01DX009 (ip), vehicle: acid diluted with saline 104 % of control | dose: 100.0 mg/kg/injection, schedule: Q01DX009 (ip), vehicle: other 121 % of control

CSc1nc2ccccc2[nH]1
inactive: dose: 6.25 mg/kg/injection, schedule: Q01DX009 (ip), vehicle: saline with Tween-80 101 % of control | dose: 12.5 mg/kg/injection, schedule: Q01DX009 (ip), vehicle: saline with Tween-80 106 % of control | dose: 25.0 mg/kg/injection, schedule: Q01DX009 (ip), vehicle: saline with Tween-80 106 % of control | [8] 110 % of control
